Blank lines part the entries; values can stand above or below the compound they belong to. Where a SMILES comes first, the peptide text is derived from it. [ ]: non-standard residue; d: D form. The star is where a group is joined. ξ: configuration not given here. NOTA = O=C(O)CN1CCN(CC(=O)O)CCN(CC(=O)*)CC1; Oic = O=C(O)[C@@H]1C[C@@H]2CCCC[C@@H]2N1; d2Nal = N[C@H](Cc1ccc2ccccc2c1)C(=O)O; αMeF = C[C@](N)(Cc1ccccc1)C(=O)O; ξαMeF = CC(N)(Cc1ccccc1)C(=O)O; Orn = NCCC[C@H](N)C(=O)O; βAla = NCCC(=O)O
Experiments:
human B1R = target: T1, human B1R (Homo sapiens, UniProt P46663); assay: human bioassay using isolated human umbilical veins, B1R; assay type: cell-based; conditions: versus the βAla-linked compound
T1 construct: It particularly expresses both kinin B1R and B2R at physiological densities; from tissue; host or cells: isolated human umbilical vein
T1 sequence (P46663 1-353): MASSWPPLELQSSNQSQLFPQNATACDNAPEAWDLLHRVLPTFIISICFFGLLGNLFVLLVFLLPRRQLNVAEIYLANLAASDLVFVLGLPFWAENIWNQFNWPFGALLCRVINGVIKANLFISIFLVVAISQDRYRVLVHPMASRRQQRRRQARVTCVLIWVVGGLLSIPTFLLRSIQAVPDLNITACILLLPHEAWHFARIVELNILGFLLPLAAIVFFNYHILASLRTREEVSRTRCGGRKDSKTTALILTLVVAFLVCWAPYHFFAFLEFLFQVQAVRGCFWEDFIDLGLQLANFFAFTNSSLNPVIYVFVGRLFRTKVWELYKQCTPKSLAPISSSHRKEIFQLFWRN
Text: The apparent affinity constants (or potency) of kinin agonist and antagonist analogues for human B1R were estimated by in vitro human bioassay using isolated human umbilical veins (Gobeil et al., 1996, supra; Côté et al., 2009, supra). […] It particularly expresses both kinin B1R and B2R at physiological densities. Apparent affinities of peptides were defined in terms of EC50 (pD2) values for agonists and IC50 values for antagonists.

cancer cells = assay: cytotoxicity of B1R radionuclide therapy by clonogenic assays; assay type: cell-based; conditions: non-radioactive surrogate up to 10 μM
Procedure: Cytotoxicity of B1R radionuclide therapy was assessed in cancer cells by clonogenic assays. […] Then, media were removed and colonies fixed/stained with 0.5% methylene blue in 50% ethanol, rinsed with tap water and air dried. Colony counting was performed manually or automatically using the Image Pro Plus 5.1.

F98 GBM [1] = assay: small animal PET imaging, Fischer/F98 malignant glioma model; assay type: in vivo, rat; conditions: intravenous, F98 GBM-bearing rats
Procedure: The F98 GBM cell line (#CRL-2397) was purchased from American Type Culture Collection (ATCC). Cells were cultured as monolayers in Dulbecco's modified Eagle medium (DMEM) supplemented with 10% fetal bovine serum (FBS) and 1% penicillin-streptomycin mixture at 37° C. in a humidified 5% CO2/95% air incubator. The procedure of F98 glioma cell implantation was similar to that used in our previous studies (Côté et al., 2010, Neuropeptides, 44:177-185). […] All tumor transplantations were successful as determined by histology and/or MRI.
PET scans were performed using a LabPET8 (Gamma Medica Inc.) small animal scanner with an axial field of view of 8 cm. […] PET scans were assessed 1 h and 20 h post-injections. […] Regions of interest were traced for tumor, normal brain, heart, liver, kidney, and muscle, and the activity in each organ was measured and reported to the injected dose for percentages calculation. […] In vivo testing of the novel kinin PET radiotracers was also assessed in a model of tumor metastasis induced by the intracardiac injection of 4T1/luc (bioluminescent) mouse breast cancer cells under ultrasound guidance.

4T1/luc metastases = assay: PET and bioluminescence imaging, 4T1/luc mouse mammary tumor metastasis model; assay type: in vivo; conditions: 4T1/luc mouse model
Procedure: PET scans were performed using a LabPET8 (Gamma Medica Inc.) small animal scanner with an axial field of view of 8 cm. F98 GBM bearing rats were injected with 74 MBq (2 mCi; 100 μL) of novel ^64Cu radiolabeled B1R peptides (agonist or antagonist) with via the caudal vein under isoflurane anesthesia. PET scans were assessed 1 h and 20 h post-injections. […] The images were reconstructed by a three dimensional MLEM algorithm implementing an analytically derived system matrix (Selivanov et al., 2000, Nuclear Science, IEEE Transactions on, 47: 1168-1175). Regions of interest were traced for tumor, normal brain, heart, liver, kidney, and muscle, and the activity in each organ was measured and reported to the injected dose for percentages calculation. […] In vivo testing of the novel kinin PET radiotracers was also assessed in a model of tumor metastasis induced by the intracardiac injection of 4T1/luc (bioluminescent) mouse breast cancer cells under ultrasound guidance.

F98 GBM [2] = assay: ex vivo biodistribution in F98 GBM-bearing rats; set-up: species or system rat
Procedure: Ex vivo biodistribution studies were performed by injecting 74 MBq (2 mCi/rat; 100 μL of ^64Cu-NOTA-βAla-Orn^1-Arg^2-Oic^3-Pro^4-Gly^5-(αMe)Phe^6-Ser^7-DβNal^8-Ile^9-OH (SEQ ID NO: 6) to isoflurane-anesthetized normal (non-implanted) or F98 bearing rats via the caudal vein. After 1 and 20 h post-injection, the animals were euthanized by CO2 inhalation. Organs of interest were further collected, weighed, and measured in a gamma-counter (Cobra II auto-gamma counter, Packard, Minn.). The results were expressed as percentage of the injected dose per gram of tissue (% ID/g). Specificity of brain tumor uptake of B1R radiotracers was determined by pre-administration of 1 mg/kg of R954 peptide (5 min prior the injection of the radiolabelled peptide) and using sham-operated contralaterals. Animals bearing B1R target knockdowns were also employed to further support specificity of brain tumor uptake. Experiments were realized with a minimum of 3 rats per group.

F98 GBM [3] = assay: peptide receptor radionuclide therapy (PRRT), survival of F98 GBM-bearing rats; assay type: in vivo; conditions: single intravenous treatment 7.5 mCi/rat, day 10 post-inoculation
[4] = system: brain tumor cells and other types of cancer cells (e.g., breast and prostate); assay: cellular and nuclear uptake of Cu (ICP-MS / radiometric assays); assay type: cell-based
Procedure: Cellular uptake profiles of non-radioactive Cu-acetate and Cu-labeled peptides in B1R expressing rat F98 GBM cells were evaluated by ICP-MS analysis. Brain cancer cells were allowed to grow to confluence on a 10-cm dish. Cells were then incubated with Cu-acetate or Cu-labeled peptides (500 nM) in FBS free-DMEM at 37° C. for 15 min or 1, 4, or 20 h, respectively. For determination of nonspecific internalization, one set of dishes was incubated with the potent B1R antagonist R-954 (1 μM) at 37° C. for 10 min to block B1R prior to incubation with Cu-labeled peptides. At each time point, media was collected, and cells were acid-washed once (50 mM acetic acid/250 mM NaCl pH 2.5), to remove surface-bound fractions, and then washed twice with Phosphate-buffered saline (PBS, pH 7.4). Thereafter, cells were trypsinized, collected by centrifugation and gently washed with Hank's buffered salt solution (HBSS). Cells were solubilized in 1/1 nitric acid/30% H2O2 solution, and the amount of Cu was determined by ICP-MS. […]
Irradiating DNA is an effective way to injure and eventually kill cells. […] Pelleted cell-free nuclei were resuspended in 0.5 ml of hypotonic buffer, counted and finally solubilized in 1/1 nitric acid/30% H2O2 solution. […] Quantification of Cu content in the nuclear fractions was done by ICP-MS.

[5] = rat
Procedure: For in vivo stability studies in normal healthy rats and mice, peptide was reconstituted in PBS and 20-30 MBq (500-800 μCi; 100 μL) were injected through the tail vein to isoflurane anesthetized animals. At different times post-injection, blood and urine were collected, centrifuged and followed by a protein precipitation with acetonitrile. Samples were analyzed by UPLC using a C-18 column and a radio-detector. Analysis and retention times were compared to the original radiolabeled peptide to monitor peptide cleavage.

[6] = system: human solid tumors (e.g., brain and prostate) expressing naturally-occurring native B1R; assay: PET imaging of solid tumors expressing native B1R (LN-CaP tumor-bearing nude mouse, F98); assay type: in vivo
Procedure: FIGS. 4A-C illustrate in vitro cell uptake and anticancer activity of ^64Cu-NOTA-βAla-Orn^1-Arg^2-Oic^3-Pro^4-Gly^5-(αMe)Phe^6-Ser^7-DβNal^8-Ile^9-OH; ^64Cu-NOTA-B1RA) (SEQ ID NO: 6) in human prostate cancer cells (PC3 and LN-CaP). Cell uptake of ^64Cu-Nota-B1RA (in the presence or not of competitor R954) in PC3 cells measured at 20 h post-treatment by radiometric assays (A). Dose-dependent antiproliferative effects of ^64Cu-acetate and ^64Cu/Nota-B1RA on PC3 cells (B) and LN-CaP cells (C), assessed by clonogenic assays. FIG. 4 D illustrates the molecular imaging of prostate cancer with ^64Cu/Nota-B1RA. PET images of LN-CaP tumor-bearing nude mouse obtained after injection of 64Cu/Nota-B1RA (9 MBq) at 0.5 h post-injection (p.i.). […] FIG. 4F confirms the immunohistochemical (IHC) overexpression of B1R in tumoral tissues of LNCaP-bearing mice (blackiste dark-color).
FIGS. 5A-C illustrate in vitro cellular/nuclear uptake and anticancer activity of ^64Cu-NOTA-βAla-Orn^1-Arg^2-Oic^3-Pro^4-Gly^5-(αMe)Phe^6-Ser^7-DβNal^8-Ile^9-OH (Cu/Nota-B1RA) (SEQ ID NO: 6) in F98 GBM cells. Cell uptake and nuclear localization of non-radioactive, free Cu and Cu/Nota-B1RA in F98 glioma cells measured at 20 h post-treatment by ICP-MS (A). Dose-dependent antiproliferative effects of ^64Cu-acetate, ^64Cu/Nota-B1RA on F98 wildtype (B) or shRNA-B1R knockdown F98 cells (C) using clonogenic assays. […]

decrease in affinity to hB1R in absence of linker (human B1R): 10 fold
Compound: CC[C@H](C)[C@H](NC(=O)[C@@H](Cc1ccc2ccccc2c1)NC(=O)[C@H](CO)NC(=O)C(C)(Cc1ccccc1)NC(=O)CNC(=O)[C@@H]1CCCN1C(=O)[C@@H]1C[C@@H]2CCCC[C@@H]2N1C(=O)[C@H](CCCNC(=N)N)NC(=O)[C@H](CCCN)NC(=O)CN1CCN(CC(=O)O)CCN(CC(=O)O)CC1)C(=O)O (stereo partly shown) [Cu-NOTA-Orn^1-Arg^2-Oic^3-Pro^4-Gly^5-(αMe)Phe^6-Ser^7-DβNal^8-Ile^9-OH] ({NOTA}-[Orn]R[Oic]PG[ξαMeF]S[d2Nal]I-OH; N-terminus assumed)

Compound: CC[C@H](C)[C@H](NC(=O)[C@@H](Cc1ccc2ccccc2c1)NC(=O)[C@H](CO)NC(=O)C(C)(Cc1ccccc1)NC(=O)CNC(=O)[C@@H]1CCCN1C(=O)[C@@H]1C[C@@H]2CCCC[C@@H]2N1C(=O)[C@H](CCCNC(=N)N)NC(=O)[C@H](CCCN)NC(=O)CCNC(=O)CN1CCN(CC(=O)O)CCN(CC(=O)O)CC1)C(=O)O (stereo partly shown) [Cu-NOTA-βAla-Orn^1-Arg^2-Oic^3-Pro^4-Gly^5-(αMe)Phe^6-Ser^7-DβNal^8-Ile^9-OH] ({NOTA-βAla}-[Orn]R[Oic]PG[ξαMeF]S[d2Nal]I-OH; N-terminus assumed)
anticancer activity / therapeutic efficacy (cancer cells): not seen

Compound: CC(=O)[O-].CC(=O)[O-].[64Cu+2] [^64Cu-acetate, reference compound]
anticancer activity / therapeutic efficacy (cancer cells): not seen

Compound: ^64Cu-NOTA-βAla-DLys^1-Arg^2-Pro^3-Pro^4-Gly^5-Phe^6-Ser^7-Pro^8-DPhe^9-OH (AKRPPGFSPF; 64Cu-NOTA-betaAla N-terminal; D-Lys1, D-Phe9; SITE (1)...(1) beta-alanine; SITE (2)...(2) D-lysine; SITE (10)...(10) D-phenylalanine)
detection of brain tumors by μPET (F98 GBM [1]): properly detected relatively small brain tumors

Compound: ^64Cu-NOTA-βAla-Orn^1-Arg^2-Oic^3-Pro^4-Gly^5-(αMe)Phe^6-Ser^7-DβNal^8-Ile^9-OH ({NOTA}-[βAla][Orn]R[Oic]PG[αMeF]S[d2Nal]I-OH; also: 64Cu complexed by NOTA)
PET signal localization versus bioluminescent signals (4T1/luc metastases): colocalized with bioluminescent signals from (bone) metastases
brain tumor uptake, ex vivo biodistribution (F98 GBM [2]): significant amount of brain tumor uptake
survival with PRRT (F98 GBM [3]): tendency of prolonging survival
cellular localization [4]: localize both in cytoplasmic and nuclear compartment
detection of brain tumors by μPET (F98 GBM [1]): properly detected relatively small brain tumors
in vivo stability [5]: no degradation sign
elimination (pharmacokinetics) ([5]; in vivo): largely eliminated by the kidneys in urine as intact form
non-invasive detection of solid tumors [6]: capacity to identify or detect non-invasively and rapidly human solid tumors
anticancer activity / therapeutic efficacy (cancer cells): enhanced anticancer activity
